Test results reported in patent US6555113B1, “Modulation of cholesteryl ester transfer protein (CETP) activity” (priority 1995, dated 2003).

Key:
recombinant human CETP [1] = biological target: T1, recombinant human CETP (Homo sapiens, UniProt P11597); conditions: in vivo
[2] = set-up: species or system New Zealand White Rabbits; conditions: rabbit, in vivo
recombinant human CETP [3] = biological target: T1, recombinant human CETP; conditions: in vivo; remark: listed apart in the source
recombinant human CETP [4] = biological target: T1, recombinant human CETP; conditions: in vivo; remark: listed apart in the source
[5] = set-up: species or system New Zealand White Rabbits; conditions: rabbit, in vivo; remark: listed apart in the source
[6] = test system: aortic atherosclerotic lesions; test: Measurement of aortic atherosclerotic lesions in rabbits, cholesterol-fed model of atherosclerosis; format: in vivo, New Zealand White Rabbits
Method: The synthetic vaccine peptide (SEQ ID NO:2) of Example 1 above was injected into New Zealand White Rabbits to test the ability of the vaccine peptide to elicit an immune response against endogenous rabbit CETP and to protect or reduce development of atherosclerosis. Group I contained six rabbits (rb#1-#6), each of which was subjected to a protocol for administration of the vaccine peptide. Control Group II contained six rabbits (rb#7-12) that were vaccinated but not fed a high cholesterol diet. Control Group III contained six rabbits (rb#13-18) that were not vaccinated and not fed a high cholesterol diet. Control Group IV contained six rabbits (rb#19-24) that were not vaccinated but fed a high cholesterol diet. The high cholesterol diet was administered starting four weeks after a final boost with the vaccine and continued for a total of 17 weeks.
On Day 0, peptide (100 μg) was suspended in the RIBI™ adjuvant system (RIBI ImmunoChem Research, Inc., Hamilton, Mont.) according to manufacturer's instructions to a final volume of […], and each rabbit of Group I and II were injected at two intramuscular sites (250 μl per site), subcutaneously at two sites (100 μl per site), and six intradermal sites (50 μl per site). On Day 28, a boost (100 μg of peptide in RIBI™ adjuvant system) was administered as on Day 0. On Day 49, another boost (100 μg of peptide in RIBI™ adjuvant system) was administered as on Day 0. […]
Aortas were removed from all surviving rabbits (four in Groups I and IV, five in Group II, six in Group III) after 17 weeks (Day 196 from primary vaccination) on cholesterol supplemented diet in Groups I and IV and control diet (no cholesterol supplement) in Groups II and III. […] The lesions were measured and the data quantitated using a computer program (The Morphometer, Woods Hole Educational Associated, Woods Hole, Mass.).

T1 sequence (P11597 18-493): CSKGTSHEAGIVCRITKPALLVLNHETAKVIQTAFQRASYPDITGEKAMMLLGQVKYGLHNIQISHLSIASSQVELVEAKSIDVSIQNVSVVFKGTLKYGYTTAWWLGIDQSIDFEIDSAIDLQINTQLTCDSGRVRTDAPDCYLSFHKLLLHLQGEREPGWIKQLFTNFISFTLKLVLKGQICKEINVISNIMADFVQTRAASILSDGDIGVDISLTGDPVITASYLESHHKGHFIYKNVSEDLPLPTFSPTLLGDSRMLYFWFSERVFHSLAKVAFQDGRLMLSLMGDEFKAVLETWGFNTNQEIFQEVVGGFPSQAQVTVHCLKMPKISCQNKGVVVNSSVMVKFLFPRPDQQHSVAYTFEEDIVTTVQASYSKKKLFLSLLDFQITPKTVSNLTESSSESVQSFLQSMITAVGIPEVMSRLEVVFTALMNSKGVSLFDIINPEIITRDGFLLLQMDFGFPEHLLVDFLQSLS

With “CQYIKANSKFIGITEFGFPEHLLVDFLQSLS [SEQ ID NO:2]” the “inhibition of TP2 binding to CETP by plasma” value (recombinant human CETP [1]) was “observed in plasma sample from two of the three rabbits”, the “increase in HDL-C concentrations compared to prebleed plasma samples” value [2] was 2 to 5 fold and the “plasma HDL concentrations over time” value [2] was “increasing plasma HDL concentrations over time”. For the same sequence, the “ratio of Non-HDL/HDL” value [2] was “generally declined”, the “total cholesterol in plasma samples” value [2] was “no significant difference” and the “titers of anti-CETP antibody by direct ELISA” value (recombinant human CETP [3]) was “All Group I mice had significant titers”. The “anti-CETP antibody that competed with Mab TP2 for binding to recombinant human CETP” value (recombinant human CETP [4]) was “three of the six mice”, the “levels of HDL-C compared to pre-vaccination levels” value [5] was “showed an increase” and the “size of atherosclerotic lesions compared to non-vaccinated animals” value ([6]; Group I (vaccinated, cholesterol-supplemented diet) vs Group IV, 17 weeks on 0.25% cholesterol diet) was “statistically significant reduction”. The “average total area of the aorta covered by lesions” value ([6]; Group I vaccinated animals, 17 weeks on cholesterol supplemented diet, Oil Red O staining) was 19% and the “reduction of the area of atherosclerotic lesions” value ([6]; animals fed cholesterol supplemented diets, vaccinated vs non-vaccinated) was “greater than 50%”.
